Test results as given in article PMC5967328, “Salvianolic acids from antithrombotic Traditional Chinese Medicine Danshen are antagonists of human P2Y1 and P2Y12 receptors” (Scientific Reports, 2018).
“Also recorded” adds a separate entry of the source. Read-outs that look alike come from different tables or passages of the source.

What was measured:
[1] = molecular target: T1, P2Y1 receptor (Homo sapiens, UniProt P47900); test: Antagonism of 2MeSADP-induced IP-1 accumulation, Schild analysis; assay type: cell-based; parameters: expressed in transfected cells; host or cells: U2OS cells
Method: (§1) Both P2Y1 and P2Y12 receptors play important roles in platelet aggregation. Therefore, we also tested the potential effects of SAA, SAB and SAC on the P2Y1 receptor. […] SAA and SAC antagonized 2MeSADP-induced accumulation of inositol 1-phosphate (IP-1) (Fig. 2e). KB values calculated by Schild analysis for the P2Y1 receptor were 9.1 ± 1.5 and 15.6 ± 2.0 µM for SAA and SAC, respectively (Fig. 2f). Thus, the Schild analysis of the antagonist potencies of SAA and SAC for Gq-coupled P2Y1 and Gi-coupled P2Y12 receptors was consistent with their binding affinities measured in the radioligand assays.
Inositol 1-phosphate (IP-1) was measured using the IP-One Tb HTRF kit (Cisbio Bioassays, Bedford, MA) as described previously[60],[61]. Briefly, after overnight growth, U2Os cells expressing the P2Y1 receptor were first treated with an antagonist for 20 min before the treatment with agonist and incubated for another 60 min. IP-1 detection reagents were added as instructed by the manual from the manufacturer. The assay plates were read on a Mithras LB940 reader (Berthold Technologies, Oak Ridge, TN) using a time-resolved fluorescence ratio (665/620 nm).

[2] = molecular target: T2, P2Y12 receptor (Homo sapiens, UniProt Q9H244); test: Antagonism of 2MeSADP-induced inhibition of forskolin-stimulated cAMP accumulation, Schild analysis; assay type: cell-based; parameters: expressed in transfected cells; host or cells: U2OS cells
Method: The functional antagonism of these three salvianolic acids against the P2Y12 receptor was measured by their effect on agonist-induced inhibition of forskolin-stimulated cyclic AMP accumulation in P2Y12 receptor-expressing U2OS cells. For example, in a concentration-dependent manner, SAA shifted the agonist response curve to the right without affecting its maximum agonist effect (Fig. 2b). This observation is consistent with competitive antagonism, but allosteric antagonism cannot be excluded. Schild analysis of the antagonism yielded KB values of 24.2 ± 5.9, 33.6 ± 6.4 and 23.7 ± 4.5 µM for SAA, SAB and SAC, respectively (Fig. 2c).
U2Os cells expressing the P2Y12 receptor were cultured in DMEM medium containing 10% fetal bovine serum, 100 units/ml penicillin, 100 µg/ml streptomycin and 2 µmol/ml glutamine. For the assay of cAMP accumulation, cells were plated in 96-well plates in 100 µl medium overnight. Cells were then treated with assay buffer containing rolipram ([…]) and antagonists for 20 min followed by the addition of agonists and incubate for 10 min. After 10 min incubation with agonist, Forskolin (10 μM) was added to the mixture and the incubation was continued for another 10 min. The reaction was terminated upon removal of the supernatant and addition of 100 µl Tween-20 (0.3%). Intracellular cAMP levels were measured with an ALPHAScreen cAMP assay kit as instructed by the manufacturer (PerkinElmer). Binding and functional parameters were calculated using Prism 7.0 software (GraphPAD, San Diego, CA, USA). Data were expressed as mean ± sem.

[3] = molecular target: T2, P2Y12 receptor; test: [3H]2MeSADP radioligand binding at the P2Y12 receptor (U2OS membranes); parameters: expressed in transfected cells; host or cells: U2OS cells (membrane preparation)
Method: The eleven selected components were further examined in radioligand binding and functional assays. We initially tested the eleven compounds by measuring the inhibition of [^3H]2-methylthioadenosine 5′-diphosphate (2MeSADP) binding at the human P2Y12 receptor (Fig. 1b).
(§2) U2Os cells expressing the P2Y1 or P2Y12 receptors were cultured in DMEM supplemented with 10% fetal bovine serum, 100 Units/ml penicillin, 100 µg/ml streptomycin and 2 µmol/ml glutamine. After reaching confluence, cells were detached from plates by scraping into PBS and centrifuged at 250 g for 5 min. The resulting pellets were re-suspended in ice-cold Tris-HCl buffer (50 mM, pH 7.4) and homogenized. After homogenization and suspension, cells were centrifuged at 1000 g for 10 min and the pellet was discarded. The suspension was re-centrifuged at 20,000 g for 60 min at 4 °C. The pellets were re-suspended, split into aliquots and stored at −80 °C. The protein concentration was measured using the Bradford assay. For P2Y1 and P2Y12 receptor binding assays, saturation curves were measured by addition of various concentrations of 50 µl [^3H]2MeSADP (specific activity, 7.5 Ci/mmol; Movarek Biochemicals, Brea, CA) and 100 μl of membrane suspension to a total of 200 μl of total assay volume. Non-specific binding was determined using 10 µM MRS2500 (Tocris; St. Louis, MO) for the P2Y1 receptor and 10 μM SAR216471 (Tocris; St. Louis, MO) for the P2Y12 receptor. For the displacement assay, various concentrations of inhibitors were incubated with [^3H]2MeSADP (1.0 nM for P2Y1; 0.4 nM for P2Y12) and membrane preparations (20 µg/sample) at 25 °C for 60 min. The separation of bound from free radioligand was accomplished by rapid vacuum filtration of the incubation mixture over GF/B filter using a Brandel cell harvester (Brandel Inc., Gaithersburg, MD). Filters were washed two times with 3 ml of ice-cold Tris-HCl buffer, pH 7.5. Radioactivity on the filters was quantified using a Tri-carb Liquid Scintillation Counter (PerkinElmer Life and Analytical Sciences). 2MeSADP was purchased from Sigma (St. Louis, MO). All other materials were from standard commercial sources and of analytical grade. For radioligand binding, calculation of apparent binding affinities, Ki = IC50/(1 + [radioligand]/Kd), was performed using the nonlinear iterative curve-fitting program of Prism (GraphPad Software Inc., San Diego, CA).

[4] = molecular target: T1, P2Y1 receptor; test: [3H]2MeSADP radioligand binding at the P2Y1 receptor (U2OS membranes); parameters: expressed in transfected cells; host or cells: U2OS cells (membrane preparation); conditions: for IC50: average; for inhibitory effect on [3H]2MeSADP binding to the P2Y1 receptor (initial binding results): in words
Method: as §1, §2
Figure S2. The effects of Tween -20 on the inhibition by SAA (a) and SAC (b) of
[3H]2MeSADP binding to the human P2Y1 recept or. Data are ex pressed Me an ± SD from
2- 3 independent experiments. The average IC50 values of SAA in the absence and
presence of 0.01% Tween- 20 are 21.2 and 19.3 μM, respectivel y. The IC50 values of
SAC in the absence and p resence of 0.01% Tween- 20 are 29.4 and 23.7 μM, respectivel y.
The c ritical micelle concentration (CMC) of Tween -20 is 0.0074%.
(§3) (1 picture or pasted object on this page, not shown here)

[5] = parameters: method as in PMID 21569331; conditions: rat plasma, cited from earlier work
[6] = molecular target: T3, adrenergic α1B receptor (Homo sapiens, UniProt P35368); test: FLIPR agonist and antagonist assays; assay type: cell-based
T3 construct: expressed in transfected cells
T3 sequence (P35368 1-520): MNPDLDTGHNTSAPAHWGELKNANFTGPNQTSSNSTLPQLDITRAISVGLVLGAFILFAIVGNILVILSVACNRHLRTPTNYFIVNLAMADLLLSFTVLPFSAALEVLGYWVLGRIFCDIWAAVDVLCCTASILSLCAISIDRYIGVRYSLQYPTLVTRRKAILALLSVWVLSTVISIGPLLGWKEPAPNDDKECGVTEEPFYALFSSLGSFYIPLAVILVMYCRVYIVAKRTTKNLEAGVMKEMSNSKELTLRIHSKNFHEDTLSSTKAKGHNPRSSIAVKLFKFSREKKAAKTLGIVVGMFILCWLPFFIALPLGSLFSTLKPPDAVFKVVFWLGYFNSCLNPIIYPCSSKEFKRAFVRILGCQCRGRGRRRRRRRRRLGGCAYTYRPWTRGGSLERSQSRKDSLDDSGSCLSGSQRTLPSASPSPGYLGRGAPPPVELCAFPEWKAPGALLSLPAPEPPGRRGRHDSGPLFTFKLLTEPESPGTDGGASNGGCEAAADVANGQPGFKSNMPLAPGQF
Method: For agonist assay: cell line expressing target receptor was seeded in a 384-well black-wall, clear-bottom plate about 18 hours prior to the day of experiment and maintained at 37 °C/5% CO2. Then, 20 μl of dye-loading solution was added into the wells and the plates were subsequently placed into a 37 °C incubator for 60 min, followed by a 15 min incubation at room temperature. At last, 10 μl of compounds or control agonist were added into respective wells of the assay plate during reading in FLIPR.
For antagonist assay: cell line expressing target receptor was seeded in a 384-well black-wall, clear-bottom plate about 18 hours prior to the day of experiment and maintained at 37 °C/5% CO2. Then the dye-loading solution and 10 μl of control antagonist and test samples were added into respectively wells in sequence. The plates were subsequently placed into a 37 °C incubator for 60 min, followed by a 15 min incubation at room temperature. At last, 12.5 μl of control agonist were added into respective wells of the assay plate during reading in FLIPR.
The fun ctional activit y of SAB on the adrener gi c α1B re ceptor we re tested b y […]

[7] = molecular target: T4, α1B adrenergic receptor (Homo sapiens, UniProt P35368); test: [3H]Prazosin binding assay (PDSP)
T4 construct: Psychoactive Drug Screening Program (PDSP)
T4 sequence (P35368 1-520): T3 sequence (P35368 1-520)
Description: We also tested if SAA, SAB and SAC are promiscuously binding compounds, due to the fact that they all have multiple phenolic groups and are thus potentially PAINS[36]. To find other possible targets of the three compounds, we evaluated their potential binding to 45 diverse receptors, transporters and ion channels (human, unless noted) using radioligand binding assays via the Psychoactive Drug Screening Program (PDSP) (Table S1)[37].
Figure S3. Binding activit y of SAB (compound 44297) to the α1B adrenergic receptor was measured b y [ 3H]Prazosin binding assays for three repeats (a-c). Prazosin is an inverse agonist of the α1B adrenergic receptor. Th e av erage Ki o f SAB was determined […]
as §3

T1 sequence (P47900 whole entry): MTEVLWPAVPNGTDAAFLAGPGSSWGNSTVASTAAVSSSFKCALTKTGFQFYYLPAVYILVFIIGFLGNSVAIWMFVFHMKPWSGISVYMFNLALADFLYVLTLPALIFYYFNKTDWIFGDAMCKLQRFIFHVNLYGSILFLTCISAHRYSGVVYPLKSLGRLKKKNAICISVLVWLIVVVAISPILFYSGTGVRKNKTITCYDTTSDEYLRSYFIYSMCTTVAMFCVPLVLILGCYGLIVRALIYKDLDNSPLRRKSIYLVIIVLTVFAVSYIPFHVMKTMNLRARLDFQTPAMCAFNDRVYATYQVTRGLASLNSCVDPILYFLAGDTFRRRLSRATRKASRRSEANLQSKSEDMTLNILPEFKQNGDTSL
T2 sequence (Q9H244 whole entry): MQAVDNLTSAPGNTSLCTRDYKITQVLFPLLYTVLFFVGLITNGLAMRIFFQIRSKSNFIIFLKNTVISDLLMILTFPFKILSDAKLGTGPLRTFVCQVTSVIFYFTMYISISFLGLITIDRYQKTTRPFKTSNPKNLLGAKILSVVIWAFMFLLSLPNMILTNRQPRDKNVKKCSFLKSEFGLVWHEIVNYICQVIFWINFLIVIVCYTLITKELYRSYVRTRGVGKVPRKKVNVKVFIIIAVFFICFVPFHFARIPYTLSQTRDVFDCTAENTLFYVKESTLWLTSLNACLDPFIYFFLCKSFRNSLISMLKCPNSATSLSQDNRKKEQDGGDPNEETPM

SMILES: O=C(/C=C/c1ccc(O)c(O)c1/C=C/c1ccc(O)c(O)c1)O[C@H](Cc1ccc(O)c(O)c1)C(=O)O [SAA, salvianolic acid A]
- Kb [1]: 9.1 ± 1.5 µM
- Kb [2]: 24.2 ± 5.9 µM
- Ki [3]: 20.3 ± 1.5 µM
- inhibition of [3H]2MeSADP binding at the human P2Y12 receptor ([3]; 100 µM compound): significant inhibitory effect
- Ki [4]: 14.7 ± 2.4 µM
- IC50 ([4]; IC50, inhibition of [3H]2MeSADP binding to human P2Y1 receptor, absence of Tween-20): 21.2 µM
- IC50 ([4]; IC50, inhibition of [3H]2MeSADP binding to human P2Y1 receptor, presence of 0.01% Tween-20): 19.3 µM
- inhibitory effect on [3H]2MeSADP binding to the P2Y1 receptor (initial binding results) [4]: substantial inhibitory effect
- t1/2 ([5]; 100 mg/kg, p.o.): 3.28 h

SMILES: O=C(C=Cc1ccc(O)c2c1C(C(=O)OC(Cc1ccc(O)c(O)c1)C(=O)O)C(c1ccc(O)c(O)c1)O2)OC(Cc1ccc(O)c(O)c1)C(=O)O (stereo not shown) [SAB, salvianolic acid B]
- agonist activity on α1B ([6]; FLIPR agonist assay): did not show agonist activity; also recorded: neither agonist nor antagonist
- antagonist activity on α1B ([6]; FLIPR antagonist assay): did not show antagonist activit y; also recorded: neither agonist nor antagonist
- Ki [7]: 6.26 ± 1.46 µM
- Kb [2]: 33.6 ± 6.4 µM
- Ki [3]: 36.4 ± 20.3 µM
- inhibition of [3H]2MeSADP binding at the human P2Y12 receptor ([3]; 100 µM compound): significant inhibitory effect
- inhibitory effect on [3H]2MeSADP binding to the P2Y1 receptor (initial binding results) [4]: significantly weaker
- t1/2 ([5]; 100 mg/kg, i.v.): about 105 min
- t1/2 ([5]; 500 mg/kg, p.o.): 4.13 h

SMILES: O=C(/C=C/c1ccc(O)c2oc(-c3ccc(O)c(O)c3)cc12)O[C@H](Cc1ccc(O)c(O)c1)C(=O)O [SAC, salvianolic acid C]
- Kb ([1]; U2OS cells expressing P2Y1, IP-1 accumulation, read-out: KB (Schild analysis), P2Y1 receptor): 15.6 ± 2 µM
- Kb [2]: 23.7 ± 4.5 µM
- inhibition of [3H]2MeSADP binding at the human P2Y12 receptor ([3]; 100 µM compound): significant inhibitory effect
- Ki ([3]; full inhibition curves vs [3H]2MeSADP (0.4 nM), read-out: Ki, P2Y12 receptor binding): 15.6 ± 6.5 µM
- IC50 ([4]; absence of Tween-20, read-out: IC50, inhibition of [3H]2MeSADP binding to human P2Y1 receptor): 29.4 µM
- inhibitory effect on [3H]2MeSADP binding to the P2Y1 receptor (initial binding results) [4]: substantial inhibitory effect
- IC50 ([4]; presence of 0.01% Tween-20, read-out: IC50, inhibition of [3H]2MeSADP binding to human P2Y1 receptor): 23.7 µM
- Ki ([4]; vs [3H]2MeSADP (1.0 nM), read-out: Ki, P2Y1 receptor binding): 23.3 ± 4.5 µM

SMILES: O=C(/C=C/c1ccc(O)c(O)c1)O[C@H](Cc1ccc(O)c(O)c1)C(=O)O [rosmarinic acid]
- inhibition at 100 µM ([3]; 100 µM compound): 31.6 ± 6.2%

SMILES: O=C(O)Cc1c(/C=C/C(=O)O[C@H](Cc2ccc(O)c(O)c2)C(=O)O)ccc(O)c1O [salvianolic acid D]
- inhibition of [3H]2MeSADP binding at the human P2Y12 receptor ([3]; 100 µM compound): 33.5 ± 8.6%
